Experimental data taken from patent US6403777B1, “Metalloligands for cleaving nucleic acids” (The Ohio State University Research Foundation, priority 1999, dated 2002).

Columns and labels:
Plasmid DNA [1] = experiment: Non-specific plasmid DNA cleavage under oxidizing conditions; format: biochemical; details: for cleavage of DNA without metalloligand: no metalloligand
Protocol: Plasmid DNA at a concentration of 50 μM, bp was added to a reaction solution containing 20 mM HEPES, pH 7.3, and the metalloligands of Examples 1-4 and the reducing agent ascorbic acid. […] The metalloligands of examples 1 to 4 also degraded plasmid DNA completely in the presence of 10 μM H2O2.
However, superoxide dismutase (SOD) and NaN3 inhibited oxidative DNA cleavage mediated by Cu(kanamycin A). Accordingly, it is believed that activated oxygen species (such as O2^− or ^1O2) are involved in plasmid cleavage when the metalloligand and the substrate DNA are reacted under oxidizing conditions.

R23 RNA [2] = details: cited from earlier work
Plasmid DNA [3] = experiment: Non-specific plasmid DNA cleavage (hydrolytic conditions), gel electrophoresis; format: biochemical
Protocol: The appearance of open circular DNA (form II) and the disappearance of supercoiled DNA (form I) was monitored via gel electrophoresis.
Metalloligands comprising the transition metal ions Fe, Mn, Co, and Ni were formed by mixing a 10 μM solution of the salts FeSO4, MnCl2, CoSO4, and NiCi2, and an equivalent volume of 10 μM kanamycin A for 12 h at 35 ° C. Complex formation was monitored by thin layer chromatography, using PrOH:Me2CO:NH4OAc (20%(aq)) (1:1:5:0.025) on silica gel plates. […]

R23 RNA [4] = experiment: Specific cleavage of 23-mer R23 RNA, FPLC analysis; format: biochemical
Protocol: The metalloligand is added to a sample containing substrate RNA with the recognized binding motif. Preferably, the RNA is in an aqueous solution having a pH of from about 7 to about 8. Preferably, the reaction is conducted at a temperatures ranging from 4° C. to about 40° C.

R23 RNA [5] = experiment: Cleaving R23 RNA at select sites under oxidizing conditions; format: biochemical
Protocol: Uniformly labeled R23 RNA was incubated at 37° C. for 1 hr with various concentrations of Cu(kanamycin A) in the presence and absence of the co-reactants H2O2 and ascorbate. Cleavage products were separated on a denaturing polyacrylamide gel. […] These sites are depicted in FIG. 1. […] RNA cleavage of 30% was observed by FPLC with 1 nM Cu(kanamycin A) after incubation at 37° C. for 1 hour. Cleavage efficiencies of approximately 25% were obtained for solutions containing 50 pM Cu(kanamycin A) and 100 μM ascorbate or 1 μM H2O2 following incubation for 2 h at 37° C. Thus, Cu(kanamycin A) is able to selectively cleave RNA at physiological pH and under mild oxidizing conditions.

poly(C) = experiment: Cleavage of poly(C); details: similar reaction conditions as R23
linear oligo (A12-18) = experiment: Cleavage of linear oligo (A12-18); details: similar reaction conditions as R23
[6] = Stability of the metalloligands in aqueous solution; details: purified complex

In the case of `[Cu+2]` [Cu^2+(aq), reference compound], the “cleavage of DNA without metalloligand” value (Plasmid DNA [1]; Cu2+ and ascorbate) is reported as “did not occur” and the “cleavage of DNA without metalloligand” value (Plasmid DNA [1]; Cu2+(aq) alone) is reported as “did not occur”.
For `NC[C@@H]1O[C@H](O[C@H]2[C@@H](O)[C@H](O[C@@H]3[C@@H](O)[C@H](N)C[C@H](N)[C@H]3O[C@H]3O[C@H](CN)[C@@H](O)[C@H](O)[C@H]3N)O[C@@H]2CO)[C@H](N)[C@@H](O)[C@@H]1O` [neomycin B], the “binding affinity to R23 RNA” value (R23 RNA [2]) is listed as “high binding affinity”.
With Cu(kanamycin A) the “nicking of plasmid DNA” value (Plasmid DNA [3]; 500 nM complex, 5 minutes, plasmid DNA 50 μM bp, 20 mM HEPES pH 7.3) was “At least some DNA was nicked”, the “time to complete degradation of plasmid DNA” value (Plasmid DNA [3]; 1 μM complex, plasmid DNA 50 μM bp, 20 mM HEPES pH 7.3) was at most 1 h and the “effect of quenchers on DNA cleavage” value (Plasmid DNA [3]; addition of SOD, NaN3, DMSO, EtOH) was “not inhibited”. For the same compound, the “effect of excess metal-free aminoglycoside on DNA cleavage” value (Plasmid DNA [3]; addition of excess metal-free aminoglycoside) was “inhibited cleavage”, the “DNA cleavage under anaerobic conditions” value (Plasmid DNA [3]; argon atmosphere) was “not inhibited” and the “conversion of supercoiled DNA to linear form” value (Plasmid DNA [1]; 5 nM complex, 10 μM ascorbate, supercoiled DNA 51 μM base pair) was “Complete conversion”. The “effect of hydroxy radical quenchers on oxidative DNA cleavage” value (Plasmid DNA [1]; DMSO and EtOH) was “did not inhibit”, the “effect of SOD and NaN3 on oxidative DNA cleavage” value (Plasmid DNA [1]; superoxide dismutase (SOD) and NaN3) was “inhibited” and the “cleavage of structured 23 mer RNA” value (R23 RNA [4]; 10 nmol complex, pH 7.3, 37 °C, 90 minutes) was “Good results”. The “hydrolysis of R23 RNA” value (R23 RNA [4]; 20 nM complex, 23-mer RNA 30 μM base pair, 90 minutes, 20 mM HEPES pH 7.3, FPLC) was 54%, the “hydrolysis efficiency of R23 RNA” value (R23 RNA [4]; 100 nM complex instead of 20 nM) was “Hydrolysis efficiency increased” and the cleavage efficiency (R23 RNA [5]; 50 pM complex, 100 μM ascorbate or 1 μM H2O2, 2 h, 37 °C) was “approximately 25%”. The RNA cleavage (R23 RNA [5]; 1 nM complex, 37 °C, 1 hour, FPLC) was 30%, the “sites of cleavage in R23 RNA” value (R23 RNA [5]; 37 °C, 1 hr, presence and absence of H2O2 and ascorbate, denaturing polyacrylamide gel) was “one in the loop region at G^15 and the other in the stem region at C^4” and the “degradation of target RNA” value (R23 RNA [5]; nanomolar complex, 100 μM ascorbate or 1 μM H2O2) was “extremely efficient degradation”. For the same compound, the “cleavage of poly(C)” value (poly(C)) was “no cleavage”, the “cleavage of linear oligo (A12-18)” value (linear oligo (A12-18)) was “no cleavage” and the “stability in aqueous solution” value [6] was “stable in aqueous solution for more than one day”.
For Cu(kanamycin A)2, the “concentration at which plasmid DNA was cleaved (as low as)” value (Plasmid DNA [3]) was 100 nM.
In the case of Cu(neamine), the “time to appearance of open circular DNA (form II)” value (Plasmid DNA [3]; 0.1 μmolar complex, plasmid DNA 50 μM bp, 10 mM HEPES pH 7.3, 37 °C) is reported as “within less than one hour” and the “stability in aqueous solution” value [6] is reported as “stable in aqueous solution for more than one day”.
In the case of Cu(neomycin B), the “concentration at which plasmid DNA was cleaved (as low as)” value (Plasmid DNA [3]) is reported as 100 nM.
